ED50 and pA2 data for two compounds are collected here from US4736057A, “Cyclohexane derivatives” (Imperial Chemical Industries PLC, priority 1983, dated 1988).

What is called ED50 is the dose at which the effect has come halfway, by size or by number of responders. The term pA2 denotes the negative logarithm of the molar antagonist concentration that doubles the agonist concentration needed for the same response. Lower therefore signals a weaker antagonist.

Test [1] deals with hypertensive effect of TXA2 mimetic agent U46619. The test can be described thus: hypertensive effect of U46619 in anaesthetised rats, test (d). The note with it: Rattus norvegicus, iv; intravenously via the jugular vein, anaesthetised male rats, blood pressure at carotid artery, n=3; read-out: ED50 (dose necessary to produce 50% of the maximum hypertensive effect). The class given is in vivo, rats (Alderley Park strain). How it is done: (d) Male rats (Alderley Park strain) are anaesthetised with sodium pentobarbital and blood pressure is monitored at the carotid artery. The TXA2 mimetic agent known as U46619 is administered intravenously via the jugular vein and an ED50 (dose necessary to produce 50% of the maximum hypertensive effect) is established (n=3). The ED50 for U46619 is approximately 5 μg/kg. A test compound is then administered either intravenously via the jugular vein or orally via a cannula directly into the stomach and the animal challenged with an ED50 dose of U46619, five minutes after dosing with test compound and then successively every ten minutes until the hypertensive effect of U46619 is no longer blocked.

The test system of another test is thromboxane A2 (TXA2). The test can be described thus: rabbit aortal strip model, test (a), using the TXA2 mimetic U46619 as agonist. The class given is cell-based. An excerpt:
(a) The rabbit aortal strip model devised by Piper and Vane (Nature. […]. 223, 29-35) using as agonist the TXA2 mimetic agent known as U46619 (R. L. Jones et alia in "Chemistry, Biochemistry and Pharmacological Activity of Prostanoids", eds. S. M. Roberts and F. Scheinman, at p.211, Pergamon Press, 1979);

Each structure is given as a SMILES string.

For the compound `CCCCC[C@H](O)/C=C/[C@@H]1[C@@H](C/C=C\CCCC(=O)O)[C@H]2CO[C@@H]1C2` [Example U46619], the 50% effective dose (ED50) in test [1] was roughly 5 µg/kg.
Turning to `O=C(O)CCC/C=C\C[C@@H]1CC[C@H](OCc2ccccc2)C[C@@H]1c1ccccc1` (relative stereo) [Example 16, 5(Z)-7-([1,2,4-cis]-4-benzyloxy-2-phenylcyclohexyl)heptenoic acid], the pA2 in the test on thromboxane A2 (TXA2) came to 5.9.
